Assay results published in the supplement of paper PMC10307832.

How the values were obtained:
Experiment in all cases: relative viability (nuclei count vs DMSO), 5 days (fraction); higher = more cells survive
Trametinib + Lapatinib = compound: CC(=O)Nc1cccc(-n2c(=O)n(C3CC3)c(=O)c3c(Nc4ccc(I)cc4F)n(C)c(=O)c(C)c32)c1 [Trametinib] + CS(=O)(=O)CCNCc1ccc(-c2ccc3ncnc(Nc4ccc(OCc5cccc(F)c5)c(Cl)c4)c3c2)o1 [Lapatinib] (partner 2 µM)
How it was run: (§1)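 Lung cancer cell lines in 1536-well plates were dosed by pin tool the day after seeding, either with one drug alone or with a fixed anchor-drug dose plus five library-drug doses (not always all listed) in √10 steps. After 5 days, cells were fixed and their nuclei stained in one step (final 0.05% Triton X-100, 1% formaldehyde, 1 ug/ml Hoechst), then counted on 4× images. Relative viability is the nuclei count in treated wells divided by that in vehicle wells. Values are medians of duplicate plates.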

[1] = compound: CN1C=C(C2=CC=CC=C21)/C=C\3/C4=C(C=CC=N4)NC3=O + O=C(c1cc(Cc2n[nH]c(=O)c3ccccc23)ccc1F)N1CCN(C(=O)C2CC2)CC1 [Olaparib] (partner 8 µM)
How it was run: as §1

Trametinib + Olaparib = compound: CC(=O)Nc1cccc(-n2c(=O)n(C3CC3)c(=O)c3c(Nc4ccc(I)cc4F)n(C)c(=O)c(C)c32)c1 [Trametinib] + O=C(c1cc(Cc2n[nH]c(=O)c3ccccc23)ccc1F)N1CCN(C(=O)C2CC2)CC1 [Olaparib] (partner 8 µM)
How it was run: as §1

[2] = compound: CN1C=C(C2=CC=CC=C21)/C=C\3/C4=C(C=CC=N4)NC3=O + COc1cc2c(Oc3ccc(NC(=O)C4(C(=O)Nc5ccc(F)cc5)CC4)cc3F)ccnc2cc1OCCCN1CCOCC1 [Foretinib] (partner 0.25 µM)
How it was run: as §1

| Cell Line | relative viability (Trametinib + Lapatinib; first compound 0.0025 µM) | relative viability (Trametinib + Lapatinib; first compound 0.007906 µM) | relative viability (Trametinib + Lapatinib; first compound 0.025 µM) | relative viability (Trametinib + Lapatinib; first compound 0.07906 µM) | relative viability (Trametinib + Lapatinib; first compound 0.25 µM) | relative viability ([1]; first compound 0.02 µM) | relative viability ([1]; first compound 0.06325 µM) | relative viability ([1]; first compound 0.2 µM) | relative viability ([1]; first compound 0.6325 µM) | relative viability ([1]; first compound 2 µM) | relative viability (Trametinib + Olaparib; first compound 0.0025 µM) | relative viability (Trametinib + Olaparib; first compound 0.007906 µM) | relative viability (Trametinib + Olaparib; first compound 0.025 µM) | relative viability (Trametinib + Olaparib; first compound 0.07906 µM) | relative viability (Trametinib + Olaparib; first compound 0.25 µM) | relative viability ([2]; first compound 0.02 µM) | relative viability ([2]; first compound 0.06325 µM) | relative viability ([2]; first compound 0.2 µM) | relative viability ([2]; first compound 0.6325 µM) | relative viability ([2]; first compound 2 µM) |
| --- | --- | --- | --- | --- | --- | --- | --- | --- | --- | --- | --- | --- | --- | --- | --- | --- | --- | --- | --- | --- |
| NCI-H1792 | 0.976 | 0.79 | 0.682 | 0.535 | 0.417 | 0.502 | 0.349 | 0.32 | 0.254 | 0.376 | 0.479 | 0.415 | 0.348 | 0.186 | 0.244 | – | – | – | – | – |
| NCI-H1651 | 0.757 | 0.74 | 0.66 | 0.531 | 0.452 | 0.18 | 0.164 | 0.182 | 0.197 | 0.217 | 0.197 | 0.178 | 0.182 | 0.179 | 0.161 | 0.809 | 0.803 | 0.894 | 0.891 | 0.812 |
| A549 | 0.749 | 0.667 | 0.618 | 0.499 | 0.0742 | 0.325 | 0.352 | – | 0.278 | 0.355 | 0.29 | 0.27 | 0.14 | 0.211 | 0.0478 | 1.03 | 0.97 | 1.04 | 1.13 | 1.16 |
| HCC-366 | 0.88 | 0.938 | 0.614 | 0.58 | 0.161 | 0.315 | 0.287 | 0.36 | 0.372 | 0.288 | 0.294 | 0.293 | 0.206 | 0.145 | 0.0982 | 0.934 | 1.01 | 0.886 | 0.916 | 0.896 |
| EKVX | 0.177 | 0.154 | 0.136 | 0.155 | 0.157 | 0.892 | – | – | 0.8 | 0.717 | 0.795 | 0.66 | 0.61 | 0.472 | 0.316 | 0.877 | 0.842 | 0.806 | 0.662 | 0.773 |
| NCI-H1993 | 0.824 | 0.909 | 0.651 | 0.648 | 0.682 | 0.781 | 1.09 | 1.06 | 0.972 | 0.966 | 0.961 | 0.834 | 0.789 | 0.542 | 0.537 | 0.665 | 0.739 | 0.72 | 0.788 | 0.688 |
| NCI-H522 | – | – | – | – | – | 0.615 | 0.685 | 0.679 | 0.556 | 0.691 | 0.617 | 0.485 | 0.583 | 0.555 | 0.545 | – | – | – | – | – |
| NCI-H1703 | – | 1.09 | 0.887 | 0.96 | 0.859 | 0.377 | 0.513 | 0.419 | 0.401 | 0.421 | 0.492 | 0.513 | 0.323 | 0.385 | 0.274 | 0.345 | 0.354 | 0.311 | 0.347 | 0.349 |
| NCI-H23 | 0.872 | 0.74 | 0.335 | 0.529 | 0.211 | 0.253 | 0.357 | 0.218 | 0.293 | 0.262 | 0.287 | 0.269 | 0.269 | 0.239 | 0.147 | 0.982 | 0.977 | 1.03 | 1.03 | 1.07 |
| HCC-827 | 0.191 | 0.164 | 0.178 | 0.208 | 0.228 | 0.624 | 0.61 | – | 0.638 | 0.764 | 0.612 | 0.571 | 0.563 | 0.507 | 0.337 | 0.851 | 1.01 | – | 1.18 | 0.893 |
| PC-3 [JPC-3] | 0.451 | 0.425 | 0.425 | 0.404 | 0.377 | 1.03 | 1.1 | 1.12 | 1.2 | 1.16 | 1.12 | 0.927 | 0.982 | – | 0.699 | 1.06 | 1.02 | 0.987 | 0.973 | 1.05 |
| NCI-H1355 | 0.838 | 0.767 | 0.369 | 0.532 | 0.4 | 0.558 | 0.678 | 0.717 | 0.469 | 0.574 | 0.663 | 0.686 | 0.552 | 0.48 | 0.39 | 0.957 | 0.893 | 0.958 | 0.772 | 0.766 |
| SW 900 | – | – | – | – | – | 0.463 | – | – | 0.768 | 0.655 | 0.838 | 0.782 | 0.669 | 0.809 | 0.518 | 0.961 | 0.702 | – | 0.866 | 0.723 |
| NCI-H1648 | – | – | – | – | – | 1.26 | 1.01 | 1.02 | 0.74 | 0.496 | 0.828 | 0.671 | 0.88 | 0.653 | 0.555 | – | – | – | – | – |
| NCI-H1563 | 0.973 | 0.937 | 0.808 | 0.84 | 0.61 | – | – | – | – | – | – | – | – | – | – | 1.04 | 0.897 | 0.955 | 0.943 | 0.901 |
| LCLC-103H | – | – | – | – | – | 0.764 | 0.727 | 0.801 | 0.825 | 0.808 | 0.723 | 0.638 | 0.655 | 0.593 | 0.581 | 0.735 | 0.685 | 0.813 | 0.802 | 0.858 |
| NCI-H2342 | – | – | – | – | – | 0.49 | 0.449 | 0.47 | 0.453 | 0.461 | 0.404 | 0.4 | 0.327 | 0.359 | 0.399 | 1.15 | 0.927 | 1.05 | 0.914 | 1.13 |
| ChaGo-K-1 | – | – | – | – | – | 0.426 | 0.405 | 0.414 | 0.387 | 0.339 | 0.435 | 0.405 | 0.405 | 0.412 | 0.359 | 0.921 | 0.911 | 0.828 | 0.861 | 0.918 |
| NCI-H441 | – | – | – | – | – | 0.52 | 0.47 | 0.611 | 0.405 | 0.588 | 0.601 | 0.614 | 0.535 | 0.483 | 0.389 | 0.943 | 0.772 | 0.967 | 1.02 | 0.984 |
